Bridge positions count the residues as written; N and C are the ends. Square brackets hold non-standard residues; d marks the D form. Peptide text beside a SMILES is read from it. * marks the point of attachment. ξ: configuration not given here. Phe(3-CF3) = N[C@@H](Cc1cccc(C(F)(F)F)c1)C(=O)O; Phe(4-COOH) = N[C@@H](Cc1ccc(C(=O)O)cc1)C(=O)O; Bip = N[C@@H](Cc1ccc(-c2ccccc2)cc1)C(=O)O; NH(CH2)14COOH = O=C(O)CCCCCCCCCCCCCCN*; Phe(3-Me) = Cc1cccc(C[C@H](N)C(=O)O)c1; Phe(4-F) = N[C@@H](Cc1ccc(F)cc1)C(=O)O; NH(CH2)12COOH = O=C(O)CCCCCCCCCCCCN*; Val(3-OH) = CC(C)(O)[C@H](N)C(=O)O; Cha = N[C@@H](CC1CCCCC1)C(=O)O; Thr(3ξ) = CC(O)[C@H](N)C(=O)O; dDab = NCC[C@@H](N)C(=O)O; Carboxymethyl = O=C(O)C*; Nle = CCCC[C@H](N)C(=O)O; Orn = NCCC[C@H](N)C(=O)O; Aun = NCCCCCCCCCCC(=O)O; Dab = NCC[C@H](N)C(=O)O; AEEA = NCCOCCOCC(=O)O

The target in this assay is T1, PD-1/PD-L1 interaction (PE-labeled human PD-L1-Ig binding to Jurkat cell line over-expressing human PD-1) (Homo sapiens, UniProt Q15116).
T1 construct: expressed in transfected cells; host or cells: Jurkat
T1 sequence (Q15116 25-288): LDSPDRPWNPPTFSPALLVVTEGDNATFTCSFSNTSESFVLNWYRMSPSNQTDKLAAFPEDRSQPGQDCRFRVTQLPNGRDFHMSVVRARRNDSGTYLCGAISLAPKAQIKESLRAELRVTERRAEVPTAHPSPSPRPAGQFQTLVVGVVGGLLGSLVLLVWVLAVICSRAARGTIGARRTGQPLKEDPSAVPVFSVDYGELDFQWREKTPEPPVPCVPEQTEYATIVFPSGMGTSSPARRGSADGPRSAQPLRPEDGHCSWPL
As to the kind of experiment: Jurkat-PD-1 Cell Binding High-Content Screening Assay (CBA). Type of assay: cell-based. Conditions: Jurkat cell line over-expressing human PD-1; PE-labeled PD-L1-Ig 20 nM final; read-out: Jurkat hPD1-PDL1 IC50. A digest of the protocol: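 Binding of fluorescent PD-L1-Ig (20 nM final) to Jurkat-PD-1 cells was measured by automated imaging after 1 h, following a 2 h compound pre-treatment at 37° C.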
Consider `Cc1cccc(C[C@@H]2NC(=O)[C@H](CC(=O)O)NC(=O)[C@H](Cc3ccc(OCC(=O)O)cc3)NC(=O)[C@H](CCN)NC(=O)CSC[C@@H](C(=O)N[C@@H](CCN)C(=O)NCCOCCOCC(=O)NCCOCCOCC(=O)NCCCCCCCCCCCCCCC(=O)O)NC(=O)[C@H](CO)NC(=O)[C@H](C(C)(C)O)NC(=O)[C@H](CC3CCCCC3)NC(=O)[C@H](CCN)NC(=O)[C@@H](CC(C)C)NC(=O)[C@H](CCCN)NC(=O)[C@H](Cc3ccc(OCC(=O)O)cc3)NC(=O)[C@H](Cc3ccc(-c4ccccc4)cc3)NC(=O)[C@H](Cc3ccc(OCC(=O)O)cc3)NC2=O)c1` [Compound 3815] ({CH2CO}-[Dab]Y(Carboxymethyl)D[Phe(3-Me)]Y(Carboxymethyl)[Bip]Y(Carboxymethyl)[Orn][dL][Dab][Cha][Val(3-OH)]SC[Dab][AEEA][AEEA]-{NH(CH2)14COOH}; thioether N-14), for which the IC50 stood at 0.0217 µM.

Regarding `COC[C@H](NC(=O)COCCOCCNC(=O)[C@H](CCN)NC(=O)[C@@H]1CSCC(=O)N[C@@H](CCN)C(=O)N[C@@H](Cc2ccc(OCC(=O)O)cc2)C(=O)N[C@@H](CC(=O)O)C(=O)N[C@@H](Cc2cccc(C)c2)C(=O)N[C@@H](Cc2ccc(OCC(=O)O)cc2)C(=O)N[C@@H](Cc2ccc(-c3ccccc3)cc2)C(=O)N[C@@H](Cc2ccc(OCC(=O)O)cc2)C(=O)N[C@@H](CCCN)C(=O)N[C@H](CC(C)C)C(=O)N[C@@H](CCN)C(=O)N[C@@H](CC2CCCCC2)C(=O)N[C@@H](C(C)(C)O)C(=O)N[C@@H](CO)C(=O)N1)C(=O)NCCCCCCCCCCCCC(=O)O` [Compound 3816] ({CH2CO}-[Dab]Y(Carboxymethyl)D[Phe(3-Me)]Y(Carboxymethyl)[Bip]Y(Carboxymethyl)[Orn][dL][Dab][Cha][Val(3-OH)]SC[Dab][AEEA]S(Me)-{NH(CH2)12COOH}; thioether N-14), the IC50 is 0.026 µM.

Consider `Cc1cccc(C[C@@H]2NC(=O)[C@H](CC(=O)O)NC(=O)[C@H](Cc3ccc(OCC(=O)O)cc3)NC(=O)[C@H](Cc3ccc(F)cc3)NC(=O)CSC[C@@H](C(=O)N[C@@H](CCN)C(=O)NCCOCCOCC(=O)NCCOCCOCC(=O)NCCCCCCCCCCCCC(=O)O)NC(=O)[C@H](CO)NC(=O)[C@H](C(C)(C)O)NC(=O)[C@H](CC3CCCCC3)NC(=O)[C@H](Cc3cnc[nH]3)NC(=O)[C@@H](CC(C)C)NC(=O)[C@H](CCCN)NC(=O)[C@H](Cc3ccc(OCC(=O)O)cc3)NC(=O)[C@H](Cc3ccc(-c4ccccc4)cc3)NC(=O)[C@H](Cc3ccc(OCC(=O)O)cc3)NC2=O)c1` [Compound 3817] ({CH2CO}-[Phe(4-F)]Y(Carboxymethyl)D[Phe(3-Me)]Y(Carboxymethyl)[Bip]Y(Carboxymethyl)[Orn][dL]H[Cha][Val(3-OH)]SC[Dab][AEEA][AEEA]-{NH(CH2)12COOH}; thioether N-14), for which the IC50 worked out at 0.0576 µM.

In the case of `CC(C)C[C@H]1NC(=O)[C@H](CCCN)NC(=O)[C@H](Cc2ccc(OCC(=O)O)cc2)NC(=O)[C@H](Cc2ccc(-c3ccccc3)cc2)NC(=O)[C@H](Cc2ccc(OCC(=O)O)cc2)NC(=O)[C@H](Cc2cccc(C(F)(F)F)c2)NC(=O)[C@H](CC(=O)O)NC(=O)[C@H](Cc2ccc(OCC(=O)O)cc2)NC(=O)[C@H](C(C)O)NC(=O)CSC[C@@H](C(=O)N[C@@H](CCN)C(=O)NCCCCCCCCCCC(=O)O)NC(=O)[C@H](CO)NC(=O)[C@H](C(C)(C)O)NC(=O)[C@H](CC2CCCCC2)NC(=O)[C@H](CCN)NC1=O` (stereo partly drawn) [Compound 3818] ({CH2CO}-[Thr(3ξ)]Y(Carboxymethyl)D[Phe(3-CF3)]Y(Carboxymethyl)[Bip]Y(Carboxymethyl)[Orn][dL][Dab][Cha][Val(3-OH)]SC[Dab][Aun]-OH; thioether N-14), the IC50 was 0.0039 µM.

Take `CC(C)C[C@H]1NC(=O)[C@H](CCCN)NC(=O)[C@H](Cc2ccc(OCC(=O)O)cc2)NC(=O)[C@H](Cc2ccc(-c3ccccc3)cc2)NC(=O)[C@H](Cc2ccc(OCC(=O)O)cc2)NC(=O)[C@H](Cc2cccc(C(F)(F)F)c2)NC(=O)[C@H](CC(=O)O)NC(=O)[C@H](Cc2ccc(OCC(=O)O)cc2)NC(=O)[C@H](CCN)NC(=O)CSC[C@@H](C(=O)N[C@@H](CCN)C(=O)NCCCCCCCCCCC(=O)O)NC(=O)[C@H](C(C)O)NC(=O)[C@H](C(C)C)NC(=O)[C@H](CC2CCCCC2)NC(=O)[C@H](CCN)NC1=O` (stereo partly drawn) [Compound 3820] ({CH2CO}-[Dab]Y(Carboxymethyl)D[Phe(3-CF3)]Y(Carboxymethyl)[Bip]Y(Carboxymethyl)[Orn][dL][Dab][Cha]V[Thr(3ξ)]C[Dab][Aun]-OH; thioether N-14): the IC50 is 0.0068 µM.

Regarding `CC(C)C[C@H]1NC(=O)[C@H](Cc2cnc[nH]2)NC(=O)[C@H](Cc2ccc(OCC(=O)O)cc2)NC(=O)[C@H](Cc2ccc(-c3ccccc3)cc2)NC(=O)[C@H](Cc2ccc(C(=O)O)cc2)NC(=O)[C@H](Cc2cccc(C(F)(F)F)c2)NC(=O)[C@H](CC(=O)O)NC(=O)[C@H](Cc2ccc(OCC(=O)O)cc2)NC(=O)[C@H](C(C)O)NC(=O)CSC[C@@H](C(=O)N[C@@H](CCN)C(=O)NCCCCCCCCCCC(=O)O)NC(=O)[C@H](C(C)O)NC(=O)[C@H](C(C)C)NC(=O)[C@H](CC2CCCCC2)NC(=O)[C@H](CCN)NC1=O` (stereo partly drawn) [Compound 3821] ({CH2CO}-[Thr(3ξ)]Y(Carboxymethyl)D[Phe(3-CF3)][Phe(4-COOH)][Bip]Y(Carboxymethyl)H[dL][Dab][Cha]V[Thr(3ξ)]C[Dab][Aun]-OH; thioether N-14), the IC50 amounted to 0.004 µM.

Turning to `CCCC[C@@H]1NC(=O)[C@H](C(C)C)NC(=O)[C@H](CC2CCCCC2)NC(=O)[C@H](CCN)NC(=O)[C@@H](CC(C)C)NC(=O)[C@H](CCCN)NC(=O)[C@H](Cc2ccc(OCC(=O)O)cc2)NC(=O)[C@H](Cc2ccc(-c3ccccc3)cc2)NC(=O)[C@H](Cc2ccc(OCC(=O)O)cc2)NC(=O)[C@H](Cc2cccc(C(F)(F)F)c2)NC(=O)[C@H](CC(=O)O)NC(=O)[C@H](Cc2ccc(C(=O)O)cc2)NC(=O)[C@H](CCN)NC(=O)CSC[C@@H](C(=O)N[C@@H](CCN)C(=O)NCCCCCCCCCCC(=O)O)NC1=O` [Compound 3825] ({CH2CO}-[Dab][Phe(4-COOH)]D[Phe(3-CF3)]Y(Carboxymethyl)[Bip]Y(Carboxymethyl)[Orn][dL][Dab][Cha]V[Nle]C[Dab][Aun]-OH; thioether N-14), the IC50 came to 0.0197 µM.

`CC(C)C[C@H]1NC(=O)[C@H](CCCN)NC(=O)[C@H](Cc2ccc(OCC(=O)O)cc2)NC(=O)[C@H](Cc2ccc(-c3ccccc3)cc2)NC(=O)[C@H](Cc2ccc(OCC(=O)O)cc2)NC(=O)[C@H](Cc2cccc(C(F)(F)F)c2)NC(=O)[C@H](CC(=O)O)NC(=O)[C@H](Cc2ccc(OCC(=O)O)cc2)NC(=O)[C@H](CC2CCCCC2)NC(=O)CSC[C@@H](C(=O)N[C@H](CCN)C(=O)NCCOCCOCC(=O)NCCCCCCCCCCCCC(=O)O)NC(=O)[C@H](CC(=O)O)NC(=O)[C@H](C(C)C)NC(=O)[C@H](CC2CCCCC2)NC(=O)[C@H](CCN)NC1=O` [Compound 3826] ({CH2CO}-[Cha]Y(Carboxymethyl)D[Phe(3-CF3)]Y(Carboxymethyl)[Bip]Y(Carboxymethyl)[Orn][dL][Dab][Cha]VDC[dDab][AEEA]-{NH(CH2)12COOH}; thioether N-14): the IC50 came to 0.0725 µM.

These data come from US20260022142A1, “MACROCYCLIC IMMUNOMODULATORS” (Bristol-Myers Squibb Company, priority 2022, published 2026).
